Data published in US10577363B2, “Substituted piperidine compounds” (EPIZYME, INC., priority 2014, dated 2020).
pIC50: −log10 of the molar value.

Legend:
SMYD3 [1] = target: T1, SMYD3 (Homo sapiens (Human), UniProt Q9H7B4); assay: SMYD3 biochemical assay (SPA, 3H-SAM methylation of MEKK2 protein substrate); details: read-out: SMYD3 Biochem IC50*
Summary of the method: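 Methylation of N-terminally GST-tagged MEKK2 by untagged full-length human SMYD3, using 3H-SAM, in pH 8.0 Tris buffer with TCEP, BSG and Tween 20; enzyme and compound sat 30 min at room temperature before substrate addition. Stopped with 100 uM (final) cold SAM; incorporation read by scintillation proximity as dpm/cpm.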

SMYD3 [2] = target: T1, SMYD3; assay: SMYD3 cell assay (Trimethyl-MEKK2 In-Cell Western in 293T/17 cells); type: cell-based; details: read-out: SMYD3 Cell IC50*
Summary of the method: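 In-Cell Western readout: methanol-fixed cells stained for trimethyl-MEKK2 and flag tag, ratio per well normalized to DMSO and background controls.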

T1 sequence (Q9H7B4 whole entry): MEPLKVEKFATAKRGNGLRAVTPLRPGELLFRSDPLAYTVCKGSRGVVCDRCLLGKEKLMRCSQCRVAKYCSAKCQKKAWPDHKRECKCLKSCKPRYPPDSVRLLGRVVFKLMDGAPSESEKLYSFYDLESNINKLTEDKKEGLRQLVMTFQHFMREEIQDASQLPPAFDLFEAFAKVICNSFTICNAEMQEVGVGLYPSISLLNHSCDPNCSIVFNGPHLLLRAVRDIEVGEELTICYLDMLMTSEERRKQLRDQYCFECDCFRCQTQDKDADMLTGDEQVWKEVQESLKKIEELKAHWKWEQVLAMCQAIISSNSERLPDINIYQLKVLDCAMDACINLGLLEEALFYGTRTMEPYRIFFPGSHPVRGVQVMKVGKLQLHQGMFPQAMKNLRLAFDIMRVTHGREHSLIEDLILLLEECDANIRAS

Compound	pIC50 (SMYD3 [1])	pIC50 (SMYD3 [2])
COCCN(C)C1CCN(S(=O)(=O)N2CC[C@H](NC(=O)c3cc(C4CC4)on3)C[C@@H]2C)CC1 [compound 851, 5-cyclopropyl-N-((2S,4S)-1-((4-((2-methoxyethyl)(methyl)amino)piperidin-1-yl)sulfonyl)-2-methylpiperidin-4-yl)isoxazole-3-carboxamide]	8.19	6.90
CCN(C)C1CCN(S(=O)(=O)N2[C@@H]3CC[C@H]2C[C@@H](NC(=O)c2cc(C4CC4)on2)C3)CC1 [compound 852, 5-cyclopropyl-N-((1R,3r,5S)-8-((4-(ethyl(methyl)amino)piperidin-1-yl)sulfonyl)-8-azabicyclo[3.2.1]octan-3-yl)isoxazole-3-carboxamide]	8.19	6.94
CC(C)CNC1CCN(S(=O)(=O)N2[C@@H]3CC[C@H]2C[C@@H](NC(=O)c2cc(C4CC4)on2)C3)CC1 [compound 853, 5-cyclopropyl-N-((1R,3r,5S)-8-((4-(isobutylamino)piperidin-1-yl)sulfonyl)-8-azabicyclo[3.2.1]octan-3-yl)isoxazole-3-carboxamide]	8.18	7.15
O=C(N[C@H]1C[C@H]2CC[C@@H](C1)N2S(=O)(=O)N1CC2CCC1CN2)c1cc(C2CC2)on1 [compound 855, N-((1R,3r,5S)-8-((2,5-diazabicyclo[2.2.2]octan-2-yl)sulfonyl)-8-azabicyclo[3.2.1]octan-3-yl)-5-cyclopropylisoxazole-3-carboxamide]	8.15	7.16
O=C(N[C@H]1C[C@H]2CC[C@@H](C1)N2S(=O)(=O)N1CCNCC1)c1cc(C2CC2)on1 [compound 856, 5-cyclopropyl-N-((1R,3r,5S)-8-(piperazin-1-ylsulfonyl)-8-azabicyclo[3.2.1]octan-3-yl)isoxazole-3-carboxamide]	8.15	7.33
CC1CC(CS(=O)(=O)N2[C@@H]3CC[C@H]2C[C@@H](NC(=O)c2cc(C4CC4)on2)C3)CC(C)N1 (stereo partly drawn) [compound 857, 5-cyclopropyl-N-((1R,3r,5S)-8-(((2,6-dimethylpiperidin-4-yl)methyl)sulfonyl)-8-azabicyclo[3.2.1]octan-3-yl)isoxazole-3-carboxamide]	8.15	6.89
C[C@H]1C[C@@H](NC(=O)c2cc(C3CC3)on2)CCN1S(=O)(=O)CC[C@H]1CCNC1 [compound 858, 5-cyclopropyl-N-((2S,4S)-2-methyl-1-((2-((R)-pyrrolidin-3-yl)ethyl)sulfonyl)piperidin-4-yl)isoxazole-3-carboxamide]	8.14	6.76
O=C(N[C@H]1C[C@H]2CC[C@@H](C1)N2S(=O)(=O)[C@H]1CC[C@H](NCCN2CCOCC2)CC1)c1cc(C2CC2)on1 [compound 859, 5-cyclopropyl-N-((1R,3R,5S)-8-(((1r,4R)-4-((2-morpholinoethyl)amino)cyclohexyl)sulfonyl)-8-azabicyclo[3.2.1]octan-3-yl)isoxazole-3-carboxamide]	8.13	6.68
CC(C)CN(C)C1CCN(S(=O)(=O)N2[C@@H]3CC[C@H]2C[C@@H](NC(=O)c2cc(C4CC4)on2)C3)CC1 [compound 860, 5-cyclopropyl-N-((1R,3r,5S)-8-((4-(isobutyl(methyl)amino)piperidin-1-yl)sulfonyl)-8-azabicyclo[3.2.1]octan-3-yl)isoxazole-3-carboxamide]	8.12	6.86
COCCNC1CCN(S(=O)(=O)N2CC[C@H](NC(=O)c3cc(C4CC4)on3)C[C@@H]2C)CC1 [compound 861, 5-cyclopropyl-N-((2S,4S)-1-((4-((2-methoxyethyl)amino)piperidin-1-yl)sulfonyl)-2-methylpiperidin-4-yl)isoxazole-3-carboxamide]	8.12	6.99
CCCN(C)C1CCN(S(=O)(=O)N2[C@@H]3CC[C@H]2C[C@@H](NC(=O)c2cc(C4CC4)on2)C3)CC1 [compound 862, 5-cyclopropyl-N-((1R,3r,5S)-8-((4-(methyl(propyl)amino)piperidin-1-yl)sulfonyl)-8-azabicyclo[3.2.1]octan-3-yl)isoxazole-3-carboxamide]	8.11	7.12
CCCNC1CCN(S(=O)(=O)N2[C@@H]3CC[C@H]2C[C@@H](NC(=O)c2cc(C4CC4)on2)C3)CC1 [compound 863, 5-cyclopropyl-N-((1R,3r,5S)-8-((4-(propylamino)piperidin-1-yl)sulfonyl)-8-azabicyclo[3.2.1]octan-3-yl)isoxazole-3-carboxamide]	8.11	7.10
CN1CC2CC1CN2S(=O)(=O)N1[C@@H]2CC[C@H]1C[C@@H](NC(=O)c1cc(C3CC3)on1)C2 [compound 864, 5-cyclopropyl-N-((1R,3r,5S)-8-((5-methyl-2,5-diazabicyclo[2.2.1]heptan-2-yl)sulfonyl)-8-azabicyclo[3.2.1]octan-3-yl)isoxazole-3-carboxamide]	8.09	7.06
CCNC1CCN(S(=O)(=O)N2[C@@H]3CC[C@H]2C[C@@H](NC(=O)c2cc(C4CC4)on2)C3)CC1 [compound 865, 5-cyclopropyl-N-((1R,3r,5S)-8-((4-(ethylamino)piperidin-1-yl)sulfonyl)-8-azabicyclo[3.2.1]octan-3-yl)isoxazole-3-carboxamide]	8.07	7.04
CC(C)CN1C2CCC1CN(S(=O)(=O)N1[C@@H]3CC[C@H]1C[C@@H](NC(=O)c1cc(C4CC4)on1)C3)C2 [compound 866, 5-cyclopropyl-N-((1R,3r,5S)-8-((8-isobutyl-3,8-diazabicyclo[3.2.1]octan-3-yl)sulfonyl)-8-azabicyclo[3.2.1]octan-3-yl)isoxazole-3-carboxamide]	8.06	6.70
O=C(N[C@H]1C[C@H]2CC[C@@H](C1)N2S(=O)(=O)N1CC2CCC(C1)N2CCc1ccccc1)c1cc(C2CC2)on1 [compound 867, 5-cyclopropyl-N-((1R,3r,5S)-8-((8-phenethyl-3,8-diazabicyclo[3.2.1]octan-3-yl)sulfonyl)-8-azabicyclo[3.2.1]octan-3-yl)isoxazole-3-carboxamide]	8.06	6.07
O=C(N[C@H]1C[C@H]2CC[C@@H](C1)N2S(=O)(=O)N1CCC(NCCCN2CCCC2)CC1)c1cc(C2CC2)on1 [compound 868, 5-cyclopropyl-N-((1R,3r,5S)-8-((4-((3-(pyrrolidin-1-yl)propyl)amino)piperidin-1-yl)sulfonyl)-8-azabicyclo[3.2.1]octan-3-yl)isoxazole-3-carboxamide]	8.06	6.51
COCCCNC1CCN(S(=O)(=O)N2[C@@H]3CC[C@H]2C[C@@H](NC(=O)c2cc(C4CC4)on2)C3)CC1 [compound 869, 5-cyclopropyl-N-((1R,3r,5S)-8-((4-((3-methoxypropyl)amino)piperidin-1-yl)sulfonyl)-8-azabicyclo[3.2.1]octan-3-yl)isoxazole-3-carboxamide]	8.04	6.93
COCCNC1CCN(S(=O)(=O)N2[C@@H]3CC[C@H]2C[C@@H](NC(=O)c2cc(C4CC4)on2)C3)CC1 [compound 870, 5-cyclopropyl-N-((1R,3r,5S)-8-((4-((2-methoxyethyl)amino)piperidin-1-yl)sulfonyl)-8-azabicyclo[3.2.1]octan-3-yl)isoxazole-3-carboxamide]	8.03	6.89
CC(C)c1cc(C(=O)N[C@H]2C[C@H]3CC[C@@H](C2)N3S(=O)(=O)[C@H]2CC[C@H](N)CC2)no1 [compound 871, N-((1R,3R,5S)-8-(((1r,4R)-4-aminocyclohexyl)sulfonyl)-8-azabicyclo[3.2.1]octan-3-yl)-5-isopropylisoxazole-3-carboxamide]	8.03	7.06
CCN(CC)C1CCN(S(=O)(=O)N2CC[C@H](NC(=O)c3cc(C4CC4)on3)C[C@@H]2C)CC1 [compound 872, 5-cyclopropyl-N-((2S,4S)-1-((4-(diethylamino)piperidin-1-yl)sulfonyl)-2-methylpiperidin-4-yl)isoxazole-3-carboxamide]	8.02	6.74
C[C@H]1CN(S(=O)(=O)[C@H]2CC[C@@H](N)CC2)CC[C@H]1NC(=O)c1cc(C2CC2)on1 [compound 873, N-((3S,4R)-1-(((1s,4R)-4-aminocyclohexyl)sulfonyl)-3-methylpiperidin-4-yl)-5-cyclopropylisoxazole-3-carboxamide]	8.02	6.77
CN(CCCN1CCCC1)C1CCN(S(=O)(=O)N2[C@@H]3CC[C@H]2C[C@@H](NC(=O)c2cc(C4CC4)on2)C3)CC1 [compound 874, 5-cyclopropyl-N-((1R,3r,5S)-8-((4-(methyl(3-(pyrrolidin-1-yl)propyl)amino)piperidin-1-yl)sulfonyl)-8-azabicyclo[3.2.1]octan-3-yl)isoxazole-3-carboxamide]	8.01	6.63
C[C@H](C1CCN(C)CC1)S(=O)(=O)N1[C@@H]2CC[C@H]1C[C@@H](NC(=O)c1cc(C3CC3)on1)C2 [compound 876, 5-cyclopropyl-N-((1R,3R,5S)-8-(((R)-1-(1-methylpiperidin-4-yl)ethyl)sulfonyl)-8-azabicyclo[3.2.1]octan-3-yl)isoxazole-3-carboxamide]	8.00	6.73
C[C@@H]1C[C@@H](NS(=O)(=O)N2[C@@H]3CC[C@H]2C[C@@H](NC(=O)c2cc(C4CC4)on2)C3)CCN1 [compound 877, 5-cyclopropyl-N-((1R,3S,5S)-8-(N-((2R,4S)-2-methylpiperidin-4-yl)sulfamoyl)-8-azabicyclo[3.2.1]octan-3-yl)isoxazole-3-carboxamide]	8.00	6.76
